Laboratory results published in patent publication US11535621B2, “Heterobicyclic amides as inhibitors of CD38” (Ribon Therapeutics, Inc., priority 2019, dated 2022).

target: Human CD38 (Homo sapiens (Human), UniProt P28907); experiment: CD38 enzyme assay; type: biochemical; conditions: 2 nM CD38, NAD+ substrate, absorbance at 405 nm
Source text: [formula] where SUBcmpd is the subtracted value for the individual compound treated well, SUBmin is the average of the subtracted values of the 4-(((1r,4r)-4-(2-methoxyethoxy)cyclohexyl)amino)-1-methyl-6-(thiazol-5-yl)quinolin-2(1H)-one positive control wells and SUBmax is the average of the subtracted values of the DMSO negative control wells.
The % inhibition values were plotted as a function of compound concentration and the following 4-parameter fit was applied to derive the IC50 values:
[formula] where top and bottom are normally allowed to float, but may be fixed at 100 or 0 respectively in a 3-parameter fit. The Hill Coefficient is normally allowed to float but may also be fixed at 1 in a 3-parameter fit. Y is the % inhibition and X is the compound concentration.

Sequence of Human CD38 (P28907 whole entry): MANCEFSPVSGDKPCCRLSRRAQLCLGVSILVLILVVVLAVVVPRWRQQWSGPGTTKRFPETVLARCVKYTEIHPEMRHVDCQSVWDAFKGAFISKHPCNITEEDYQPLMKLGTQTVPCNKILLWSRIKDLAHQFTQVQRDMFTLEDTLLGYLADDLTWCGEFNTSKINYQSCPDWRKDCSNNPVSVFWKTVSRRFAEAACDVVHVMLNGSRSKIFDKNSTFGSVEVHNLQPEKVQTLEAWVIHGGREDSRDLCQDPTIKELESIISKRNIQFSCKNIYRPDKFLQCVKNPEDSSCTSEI

Row | SMILES | IC50 [µM]
1 | C[C@]1(O)CC[C@@H](NC(=O)c2nc(-n3ccnc3)nc3cc[nH]c23)CC1 [Example 175] | < 0.01
2 | O=C(N[C@H]1CC[C@H](N2CC(F)(F)C2)CC1)c1nc(-n2ccnc2)nc2cc[nH]c12 [Example 204, N-((1r,4r)-4-(3,3-difluoroazetidin-1-yl)cyclohexyl)-2-(1H-imidazol-1-yl)-5H-pyrrolo[3,2-d]pyrimidine-4-carboxamide] | 0.01 to 0.1
3 | COCCO[C@H]1CC[C@H](NC(=O)c2nc(-n3ccnc3)nc3ccn(C)c23)CC1 [Example 22, 2-(1H-Imidazol-1-yl)-N-((1r,4r)-4-(2-methoxyethoxy)cyclohexyl)-5-methyl-5H-pyrrolo[3,2-d]pyrimidine-4-carboxamide] | 0.01 to 0.1
4 | O=C(N[C@H]1CC[C@H](NCC(F)(F)F)CC1)c1nc(-n2ccnc2)nc2cc[nH]c12 [Example 101, 2-(1H-imidazol-1-yl)-N-((1r,4r)-4-((2,2,2-trifluoroethyl)amino)cyclohexyl)-5H-pyrrolo[3,2-d]pyrimidine-4-carboxamide] | 0.01 to 0.1
5 | CNC(=O)[C@H]1CC[C@H](NC(=O)c2nc(-n3ccnc3)cc3cn[nH]c23)CC1 [Example 217, 5-(1H-imidazol-1-yl)-N-((1r,4r)-4-(methylcarbamoyl)cyclohexyl)-1H-pyrazolo[3,4-c]pyridine-7-carboxamide] | < 0.01
6 | CC(C)(O)[C@H]1C[C@H](NC(=O)c2nc(-n3ccnc3)nc3cn[nH]c23)C1 [Example 265, N-((1r,3r)-3-(2-hydroxypropan-2-yl)cyclobutyl)-5-(1H-imidazol-1-yl)-1H-pyrazolo[4,3-d]pyrimidine-7-carboxamide] | 0.01 to 0.1
7 | COCCO[C@H]1CC[C@H](NC(=O)c2cc(-n3ccnc3)cc3nc[nH]c23)CC1 [Example 1, 5-(1H-Imidazol-1-yl)-N-((1r,4r)-4-(2-methoxyethoxy)cyclohexyl)-1H-benzo[d]imidazole-7-carboxamide] | 0.1 to 1
8 | CNC(=O)[C@H]1CC[C@H](NC(=O)c2nc(-n3ccnc3)nc3cc[nH]c23)CC1 [Example 170] | 0.01 to 0.1
9 | COCCN1CCc2ccc(NC(=O)c3nc(-n4ccnc4)nc4cc[nH]c34)cc2C1 [Example 163] | 0.01 to 0.1
10 | O=C(Nc1cc[nH]n1)c1nc(-n2ccnc2)nc2cc[nH]c12 [Example 86, 2-(1H-Imidazol-1-yl)-N-(1H-pyrazol-3-yl)-5H-pyrrolo[3,2-d]pyrimidine-4-carboxamide] | < 0.01
11 | CC(=O)N1CC2CC1CC2NC(=O)c1nc(-n2ccnc2)nc2cc[nH]c12 (centres unmarked) [Example 172] | 0.01 to 0.1
12 | O=C(N[C@H]1CC[C@@H](NCC(F)(F)F)CC1)c1nc(-n2ccnc2)cc2cn[nH]c12 [Example 116, 5-(1H-imidazol-1-yl)-N-((1s,4s)-4-((2,2,2-trifluoroethyl)amino)cyclohexyl)-1H-pyrazolo[3,4-c]pyridine-7-carboxamide] | 0.01 to 0.1
13 | O=C(N[C@H]1CC[C@H](NCC(F)F)CC1)c1nc(-n2ccnc2)nc2cn[nH]c12 [Example 206, N-((1r,4r)-4-(2,2-difluoroethylamino)cyclohexyl)-5-(1H-imidazol-1-yl)-1H-pyrazolo[4,3-d]pyrimidine-7-carboxamide] | 0.01 to 0.1
14 | O=C(N[C@H]1CC[C@H](OC(F)(F)F)CC1)c1nc(-n2ccnc2)nc2cc[nH]c12 [Example 167] | 0.01 to 0.1
15 | O=C(N[C@@H]1CCNC[C@@H]1F)c1nc(-n2ccnc2)nc2cc[nH]c12 [Example 123a, N-((3S,4R)-3-fluoropiperidin-4-yl)-2-(1H-imidazol-1-yl)-5H-pyrrolo[3,2-d]pyrimidine-4-carboxamide] | 0.01 to 0.1
16 | O=C(Nc1ccncn1)c1nc(-n2ccnc2)nc2cc[nH]c12 [Example 150] | < 0.01
17 | N#Cc1ccc(NC(=O)c2nc(-n3ccnc3)nc3cc[nH]c23)cc1 [Example 130] | < 0.01
18 | O=C(N[C@H]1CC[C@H](C2(O)CC2)CC1)c1nc(-n2ccnc2)nc2cn[nH]c12 [Example 238, N-((1r,4r)-4-(1-hydroxycyclopropyl)cyclohexyl)-5-(1H-imidazol-1-yl)-1H-pyrazolo[4,3-d]pyrimidine-7-carboxamide] | < 0.01
19 | N#Cc1ccc(O[C@H]2CC[C@H](NC(=O)c3nc(-n4ccnc4)nc4cc[nH]c34)CC2)cc1 [Example 212, N-((1r,4r)-4-(4-cyanophenoxy)cyclohexyl)-2-(1H-imidazol-1-yl)-5H-pyrrolo[3,2-d]pyrimidine-4-carboxamide] | < 0.01

Row | SMILES | IC50 [µM]
20 | O=C(Nc1ccc(Cl)nc1)c1nc(-n2ccnc2)nc2cc[nH]c12 [Example 137] | < 0.01
21 | CO[C@H]1CC[C@H](NC(=O)c2nc(-n3ccnc3)nc3cc[nH]c23)CC1 [Example 58, 2-(1H-Imidazol-1-yl)-N-((1r,4r)-4-methoxycyclohexyl)-5H-pyrrolo[3,2-d]pyrimidine-4-carboxamide] | < 0.01
22 | CC(C)(O)[C@H]1CC[C@H](NC(=O)c2nc(-n3ccnc3)nc3cn[nH]c23)CC1 [Example 182, N-((1r,4r)-4-(2-hydroxypropan-2-yl)cyclohexyl)-5-(1H-imidazol-1-yl)-1H-pyrazolo[4,3-d]pyrimidine-7-carboxamide] | < 0.01
23 | COCCN1CCC(NC(=O)c2nc(-n3ccnc3)nc3cc[nH]c23)CC1 [Example 53, 2-(1H-Imidazol-1-yl)-N-(1-(2-methoxyethyl)piperidin-4-yl)-5H-pyrrolo[3,2-d]pyrimidine-4-carboxamide] | 0.1 to 1
24 | COCCO[C@H]1CC[C@H](NC(=O)c2nc(-c3c[nH]cn3)nc3cc[nH]c23)CC1 [Example 38, 2-(1H-Imidazol-4-yl)-N-((1r,4r)-4-(2-methoxyethoxy)cyclohexyl)-5H-pyrrolo[3,2-d]pyrimidine-4-carboxamide] | > 1
25 | O=C(NCc1c(F)cccc1C(F)(F)F)c1cc(-n2ccnc2)cc2nc[nH]c12 [Example 2, N-(2-Fluoro-6-(trifluoromethyl)benzyl)-5-(1H-imidazol-1-yl)-1H-benzo[d]imidazole-7-carboxamide] | > 1
26 | COCCO[C@H]1CC[C@H](NC(=O)c2nc(-c3cncs3)nc3ccsc23)CC1 [Example 50, N-((1r,4r)-4-(2-Methoxyethoxy)cyclohexyl)-2-(thiazol-5-yl)thieno[3,2-d]pyrimidine-4-carboxamide] | 0.01 to 0.1
27 | O=C(N[C@H]1CC[C@H](NCC(F)(F)F)CC1)c1nc(-n2ccnc2)cc2ccsc12 [Example 270, 5-(1H-imidazol-1-yl)-N-((1r,4r)-4-((2,2,2-trifluoroethyl)amino)cyclohexyl)thieno[2,3-c]pyridine-7-carboxamide] | 0.01 to 0.1
28 | CC(C)(N[C@H]1CC[C@H](NC(=O)c2nc(-n3ccnc3)nc3cc[nH]c23)CC1)C(F)F [Example 273, N-((1r,4r)-4-((1,1-difluoro-2-methylpropan-2-yl)amino)cyclohexyl)-2-(1H-imidazol-1-yl)-5H-pyrrolo[3,2-d]pyrimidine-4-carboxamide] | 0.01 to 0.1
29 | CC(C)[C@](C)(O)COC1CCC(NC(=O)c2nc(-n3ccnc3)nc3cc[nH]c23)CC1 (stereo partly drawn) [Example 126b, N-((1R,4r)-4-((S)-2-hydroxy-2,3-dimethylbutoxy)cyclohexyl)-2-(1H-imidazol-1-yl)-5H-pyrrolo[3,2-d]pyrimidine-4-carboxamide] | 0.01 to 0.1
30 | O=C(N[C@H]1CC[C@H](C2(O)CC2)CC1)c1nc(-n2ccnc2)cc2ccsc12 [Example 263, N-((1r,4r)-4-(1-hydroxycyclopropyl)cyclohexyl)-5-(1H-imidazol-1-yl)thieno[2,3-c]pyridine-7-carboxamide] | < 0.01
31 | CC1(C#N)CN([C@H]2CC[C@@H](NC(=O)c3nc(-n4ccnc4)cc4cn[nH]c34)CC2)C1 [Example 259, N-((1s,4s)-4-(3-cyano-3-methylazetidin-1-yl)cyclohexyl)-5-(1H-imidazol-1-yl)-1H-pyrazolo[3,4-c]pyridine-7-carboxamide] | 0.1 to 1
32 | COCCO[C@H]1CC[C@H](NC(=O)c2nc(-n3ccnc3)cc3cc[nH]c23)CC1 [Example 12, 5-(1H-Imidazol-1-yl)-N-((1r,4r)-4-(2-methoxyethoxy)cyclohexyl)-1H-pyrrolo[2,3-c]pyridine-7-carboxamide] | 0.01 to 0.1
33 | C[C@H](O)CO[C@H]1CC[C@H](NC(=O)c2nc(-n3ccnc3)cc3cn[nH]c23)CC1 (single isomer, unassigned) [Example 207] | 0.01 to 0.1
34 | COCCO[C@H]1C[C@H](NC(=O)c2nc(-n3ccnc3)nc3cc[nH]c23)C1 [Example 65, 2-(1H-Imidazol-1-yl)-N-((1r,3r)-3-(2-methoxyethoxy)cyclobutyl)-5H-pyrrolo[3,2-d]pyrimidine-4-carboxamide] | 0.01 to 0.1
35 | O=C(Nc1ccc(F)c(Cl)c1)c1nc(-n2ccnc2)nc2cc[nH]c12 [Example 96, N-(3-Chloro-4-fluorophenyl)-2-(1H-imidazol-1-yl)-5H-pyrrolo[3,2-d]pyrimidine-4-carboxamide] | < 0.01
36 | COCCO[C@H]1CC[C@H](NC(=O)c2cc(-n3ccnc3)cc3cc(CN)[nH]c23)CC1 [Example 19, 2-(Aminomethyl)-5-(1H-imidazol-1-yl)-N-((1r,4r)-4-(2-methoxyethoxy)cyclohexyl)-1H-indole-7-carboxamide] | 0.01 to 0.1
37 | O=C(NC1CCN(C2COC2)CC1)c1nc(-n2ccnc2)nc2cc[nH]c12 [Example 76, 2-(1H-Imidazol-1-yl)-N-(1-(oxetan-3-yl)piperidin-4-yl)-5H-pyrrolo[3,2-d]pyrimidine-4-carboxamide] | 0.01 to 0.1
38 | O=C(N[C@H]1CC[C@](O)(C(F)(F)F)CC1)c1nc(-n2ccnc2)nc2cc[nH]c12 [Example 120a, N-((1s,4s)-4-hydroxy-4-(trifluoromethyl)cyclohexyl)-2-(1H-imidazol-1-yl)-5H-pyrrolo[3,2-d]pyrimidine-4-carboxamide] | < 0.01
